Measurements published in patent US20250032430A1, “USES OF RHODOQUINONE FOR THE TREATMENT OF DISEASE” (Whitehead Institute for Biomedical Research, priority 2021, published 2025).

Assays:
complex I = test: NAD+/NADH ratio in cells; assay type: cell-based, human; conditions: SDHB-null cells treated with antimycin versus wild-type cells treated with antimycin
Protocol: Next, fumarate reduction was tested to determine if it sustains complex I activity in cells incapable of using O2 as a terminal electron acceptor. Both the NAD+/NADH ratio, which is an indicator of complex I-mediated NADH reoxidation, and the mitochondrial membrane potential (ΔΨ^Mito) to which complex I contributes via proton pumping. […] Thus, fumarate reduction supports partial complex I activity, specifically NADH reoxidation and ΔΨ^Mito, in cells incapable of reducing O2 in the ETC.

MT-DNA copy number = test: MT-DNA quantification; assay type: cell-based, human; conditions: SDHA and SDHB knockout cells
Protocol: MT-DNA Quantification: Cells were pelleted, washed 1× in PBS, and then lysed in buffer (25 mM NaOH, 0.2 mM EDTA) for 15 minutes at 95° C. Lysis was neutralized with buffer (40 mM Tris-HCl) and centrifuged at 16,000×g for 10 minutes at 4° C. Supernatant containing MT-DNA was quantified on a CFX96 Real-Time System Thermal Cycler (Bio Rad). Primers amplifying the MT-DNA marker D-Loop (Forward Primer-[…] (SEQ ID NO: 5) Reverse Primer—[…]) (SEQ ID NO: 6) and the nuclear DNA marker B-Globin (Forward Primer-[…] (SEQ ID NO: 7) Reverse Primer—[…]) (SEQ ID NO: 8) were used and the relative MT-DNA to nuclear DNA was quantified in each sample [4].

[1] = tested on: SW1353, U87, DLD1, HCT116, C2C12, primary dermal fibroblasts, Mink lung epithelial cells; test: Fumarate reduction in a panel of other cell lines; assay type: cell-based; conditions: other human cancer cell lines
Protocol: Stable isotope tracing in cells: Cells were seeded 24 hours prior to the experiment in 6-well dishes at 70% density. For stable isotope tracing of glutamine, glutamine-free DMEM (ThermoFisher) was supplemented with 2 mM ^13C5^15N2-glutamine (Sigma), 1 mM pyruvate, 5% FBS, 1% P/S, 0.1 mg/mL uridine. For stable isotope tracing of aspartate, DMEM containing 5% FBS, and 1% penicillin and streptomycin, and 0.1 mg/mL uridine (Sigma) was supplemented with the designated amount of 13C4-aspartate (Sigma) and the pH adjusted to 7.4. Uridine was left out of the media for stable isotope tracing experiments measuring nucleotide biosynthesis. Unless otherwise stated, for all experiments, cells were treated for 8 hours and metabolites were isolated as described below. Relevant compounds were added at the start of the incubation periods.

DHODH = test: Ex vivo DHODH activity in mouse tissues (13C4-aspartate into 13C4-orotate); conditions: 2 μM antimycin
Protocol: Because net-reversal of the SDH complex supports DHODH activity in cultured cells when O2 reduction is blocked (FIG. 3), mouse tissues were tested. DHODH activity was measured in tissues that are capable (the liver and kidney) or incapable (the heart and gastrocnemius muscle) of net-reversing the SDH complex when O2 reduction is limited. […] Next, DHODH activity was assessed via ^13C4-aspartate incorporation into ^13C4-orotate, because labelling of the ^13C3-UTP pool was undetectable in most tissues.
Ex vivo stable isotope tracing on tissues: Tissues were excised from mice and washed in 1×PBS. Tissues were then cut into small pieces and placed in the appropriate stable isotope tracing media. Stable isotope tracing media contained either ^13C5^15N2-glutamine (Sigma) or 13C4-aspartate (Sigma) dissolved in DMEM, 5% FBS, 1% P/S. For ex vivo tracing experiments performed on the brain, the same media was used without FBS. Tissues were incubated for the designated time at 37° C. in a normal or hypoxia tissue culture incubator. […]
Isolation of metabolites from tissues: Tissues were flash frozen and powderized with a mortar and pestle in a liquid nitrogen bath. […] The top layer was transferred to a new tube, dried down in a speedvac, and subsequently stored at −80° C. until they were analyzed by LC-MS. […] Protein in each sample was quantified using the Pierce BCA Protein Assay Kit (Life Technologies). […]

143B cells = test: Ubiquinone and ubiquinol measurement by LC-MS in mitochondria; assay type: cell-based, human; conditions: antimycin-treated SDHB knockout cells versus antimycin-treated wild-type cells
Protocol: Ubiquinone and Ubiquinol measurements: Ubiquinone and Ubiquinol were isolated from mitochondria purified by differential centrifugation as described above. Extraction and mass spectrometry protocols were performed with slight modifications to a previously described protocol. Briefly, mitochondria isolated from 25 million cells or approximately 100 mg mouse tissue were resuspended in 500 μL of ethanol and vortexed for 10 minutes at 4° C. Then, 1 mL of hexane was added and the samples were vortexed for an additional 10 minutes at 4° C. Samples were centrifuged at 16,000×g for 10 minutes at 4° C., creating two layers—the top hexane layer and bottom ethanol layer. The top (hexane) fraction was moved into a new tube and dried down. Immediately prior to LC-MS, samples were resuspended in 50 μL of 80:20 ethanol:hexane and loaded into a 4° C. autosampler. 5 μL of samples were injected onto a Luna 3 μm PFP(2) 100 Å, LC Column 100×2 mm. The column oven was held at 25° C. and the autosampler tray was held at 4° C. Buffer A contained water with 0.1% formic acid and Buffer B contained acetonitrile with 0.1% formic acid. […]

For antimycin, the “NAD+/NADH ratio” value (complex I) was “lower”, the MT-DNA copy number (MT-DNA copy number) was “did not alter” and the fumarate reduction [1] was “increased”. The “levels of 13C4-orotate (DHODH activity)” value (DHODH; ex vivo heart and gastrocnemius muscle) was “reduced”, the “levels of 13C4-orotate (DHODH activity)” value (DHODH; ex vivo liver and kidney) was “remained unchanged” and the “levels of UQH2 and ratio of UQH2:UQ” value (143B cells) was “greater”.
